Source: ChEMBL document CHEMBL4828725 (Eur J Med Chem, 2021)

Legend:
[1] = Inhibition of rice alpha-glucosidase using p-nitrophenyl glycoside as substrate assessed as release of p-nitrophenol measured by spectrometric assay; parameters: species or system Oryza sativa; conditions: read-out: IC50
[2] = Inhibition of rat intestinal maltase using maltose as substrate assessed as release of D-glucose measured by spectrometric assay
[3] = biological target: T1, Sucrase-isomaltase, intestinal (Rattus norvegicus, UniProt P23739); assay: Inhibition of rat intestinal sucrase using p-nitrophenyl glycoside as substrate assessed as release of p-nitrophenol measured by spectrometric assay
[4] = biological target: T1, Sucrase-isomaltase, intestinal; assay: Inhibition of rat intestinal isomaltase using p-nitrophenyl glycoside as substrate assessed as release of p-nitrophenol measured by spectrometric assay
[5] = Inhibition of almond beta-glucosidase using p-nitrophenyl glycoside as substrate assessed as release of p-nitrophenol measured by spectrometric assay; parameters: species or system Prunus dulcis
[6] = system: Prunus dulcis; assay: Inhibition of almond beta-glucosidase using p-nitrophenyl glycoside as substrate assessed as release of p-nitrophenol at 1000 uM measured by spectrometric assay relative to control
[7] = Inhibition of bovine liver beta-glucosidase using p-nitrophenyl glycoside as substrate assessed as release of p-nitrophenol measured by spectrometric assay; parameters: species or system Bos taurus
[8] = species: Bos taurus; assay: Inhibition of bovine liver beta-glucosidase using p-nitrophenyl glycoside as substrate assessed as release of p-nitrophenol at 1000 uM measured by spectrometric assay relative to control; format: tissue-based
[9] = biological target: Alpha-galactosidase (Coffea arabica, UniProt Q42656); assay: Inhibition of coffee beans alpha-galactosidase using p-nitrophenyl glycoside as substrate assessed as release of p-nitrophenol measured by spectrometric assay
[10] = biological target: Alpha-galactosidase (Coffea arabica) (UniProt Q42656); assay: Inhibition of coffee beans alpha-galactosidase using p-nitrophenyl glycoside as substrate assessed as release of p-nitrophenol at 1000 uM measured by spectrometric assay relative to control
[11] = Inhibition of bovine liver beta-galactosidase using p-nitrophenyl glycoside as substrate assessed as release of p-nitrophenol measured by spectrometric assay; format: tissue-based, Bos taurus
[12] = species: Bos taurus; assay: Inhibition of bovine liver beta-galactosidase using p-nitrophenyl glycoside as substrate assessed as release of p-nitrophenol at 1000 uM measured by spectrometric assay relative to control
[13] = Inhibition of jack bean alpha-mannosidase using p-nitrophenyl glycoside as substrate assessed as release of p-nitrophenol measured by spectrometric assay; parameters: species or system Canavalia ensiformis
[14] = biological target: T2, Alpha-mannosidase (Canavalia ensiformis) (UniProt C0HJB3); assay: Inhibition of jack bean alpha-mannosidase using p-nitrophenyl glycoside as substrate assessed as release of p-nitrophenol at 1000 uM measured by spectrometric assay relative to control
T2 sequence (whole entry): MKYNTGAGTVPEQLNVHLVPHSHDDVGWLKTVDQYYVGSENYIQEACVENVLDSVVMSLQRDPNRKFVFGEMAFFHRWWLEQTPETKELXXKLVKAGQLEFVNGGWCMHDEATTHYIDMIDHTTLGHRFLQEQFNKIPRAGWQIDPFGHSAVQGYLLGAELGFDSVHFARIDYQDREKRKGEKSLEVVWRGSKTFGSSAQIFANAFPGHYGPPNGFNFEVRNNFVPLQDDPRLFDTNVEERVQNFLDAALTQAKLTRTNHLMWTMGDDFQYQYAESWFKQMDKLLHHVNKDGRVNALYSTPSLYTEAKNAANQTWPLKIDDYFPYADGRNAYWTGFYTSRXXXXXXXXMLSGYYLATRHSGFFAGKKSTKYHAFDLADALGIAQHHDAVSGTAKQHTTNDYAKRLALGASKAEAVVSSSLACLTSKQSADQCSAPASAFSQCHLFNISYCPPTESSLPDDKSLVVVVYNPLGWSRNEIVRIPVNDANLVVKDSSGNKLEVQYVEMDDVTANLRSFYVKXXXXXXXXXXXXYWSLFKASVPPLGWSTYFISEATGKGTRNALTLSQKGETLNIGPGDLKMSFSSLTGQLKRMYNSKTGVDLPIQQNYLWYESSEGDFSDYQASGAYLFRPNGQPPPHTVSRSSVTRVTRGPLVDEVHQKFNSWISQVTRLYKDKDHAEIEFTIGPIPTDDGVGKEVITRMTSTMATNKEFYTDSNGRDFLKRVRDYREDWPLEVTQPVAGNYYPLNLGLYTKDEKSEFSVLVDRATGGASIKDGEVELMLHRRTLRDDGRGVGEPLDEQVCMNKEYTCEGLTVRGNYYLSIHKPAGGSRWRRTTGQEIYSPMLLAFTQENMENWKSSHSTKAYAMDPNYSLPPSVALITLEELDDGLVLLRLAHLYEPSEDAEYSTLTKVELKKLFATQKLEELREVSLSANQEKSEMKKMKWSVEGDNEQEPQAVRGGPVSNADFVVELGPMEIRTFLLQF

[15] = Inhibition of snail beta-mannosidase using p-nitrophenyl glycoside as substrate assessed as release of p-nitrophenol measured by spectrometric assay; parameters: species or system Helix pomatia
[16] = system: Helix pomatia; assay: Inhibition of snail beta-mannosidase using p-nitrophenyl glycoside as substrate assessed as release of p-nitrophenol at 1000 uM measured by spectrometric assay relative to control
[17] = biological target: T3, Tissue alpha-L-fucosidase (Bos taurus, UniProt Q2KIM0); assay: Inhibition of bovine kidney alpha-L-fucosidase using p-nitrophenyl glycoside as substrate assessed as release of p-nitrophenol measured by spectrometric assay
T3 sequence (Q2KIM0 whole entry): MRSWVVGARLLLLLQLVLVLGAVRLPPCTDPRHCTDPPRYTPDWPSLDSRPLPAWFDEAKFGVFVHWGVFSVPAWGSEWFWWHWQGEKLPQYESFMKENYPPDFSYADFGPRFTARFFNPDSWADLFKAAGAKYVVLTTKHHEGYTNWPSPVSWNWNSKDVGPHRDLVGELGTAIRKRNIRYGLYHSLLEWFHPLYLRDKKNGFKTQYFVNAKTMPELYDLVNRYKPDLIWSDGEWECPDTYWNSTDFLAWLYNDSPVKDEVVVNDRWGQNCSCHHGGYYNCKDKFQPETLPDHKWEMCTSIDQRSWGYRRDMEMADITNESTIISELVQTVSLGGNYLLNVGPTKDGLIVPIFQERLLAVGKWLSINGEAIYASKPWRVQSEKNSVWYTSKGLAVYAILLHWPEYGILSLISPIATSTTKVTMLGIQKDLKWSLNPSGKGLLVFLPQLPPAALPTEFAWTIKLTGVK

[18] = biological target: T4, Tissue alpha-L-fucosidase (Bos taurus) (UniProt Q2KIM0); assay: Inhibition of bovine kidney alpha-L-fucosidase using p-nitrophenyl glycoside as substrate assessed as release of p-nitrophenol at 1000 uM measured by spectrometric assay relative to control; format: tissue-based
T4 sequence (whole entry): T3 sequence (Q2KIM0 whole entry)

[19] = Inhibition of porcine kidney alpha-trehalase using p-nitrophenyl glycoside as substrate assessed as release of p-nitrophenol measured by spectrometric assay; parameters: species or system Sus scrofa
[20] = species: Sus scrofa; assay: Inhibition of porcine kidney alpha-trehalase using p-nitrophenyl glycoside as substrate assessed as release of p-nitrophenol at 1000 uM measured by spectrometric assay relative to control
[21] = Inhibition of Aspergillus niger amyloglucosidase using p-nitrophenyl glycoside as substrate assessed as release of p-nitrophenol measured by spectrometric assay
[22] = system: Aspergillus niger; assay: Inhibition of Aspergillus niger amyloglucosidase using p-nitrophenyl glycoside as substrate assessed as release of p-nitrophenol at 1000 uM measured by spectrometric assay relative to control
[23] = Inhibition of Penicillium decumbens alpha-L-rhamnosidase using p-nitrophenyl glycoside as substrate assessed as release of p-nitrophenol measured by spectrometric assay
[24] = system: Penicillium decumbens; assay: Inhibition of Penicillium decumbens alpha-L-rhamnosidase using p-nitrophenyl glycoside as substrate assessed as release of p-nitrophenol at 1000 uM measured by spectrometric assay relative to control
[25] = biological target: Beta-glucuronidase (Escherichia coli (strain K12), UniProt P05804); assay: Inhibition of Escherichia coli beta-glucuronidase using p-nitrophenyl glycoside as substrate assessed as release of p-nitrophenol measured by spectrometric assay
[26] = biological target: Beta-glucuronidase (Escherichia coli (strain K12)) (UniProt P05804); assay: Inhibition of Escherichia coli beta-glucuronidase using p-nitrophenyl glycoside as substrate assessed as release of p-nitrophenol at 1000 uM measured by spectrometric assay relative to control
[27] = species: Rattus norvegicus; assay: Inhibition of rat intestinal maltase using maltose as substrate assessed as release of D-glucose at 1000 uM measured by spectrometric assay

T1 sequence (P23739 1-1013 limits assumed): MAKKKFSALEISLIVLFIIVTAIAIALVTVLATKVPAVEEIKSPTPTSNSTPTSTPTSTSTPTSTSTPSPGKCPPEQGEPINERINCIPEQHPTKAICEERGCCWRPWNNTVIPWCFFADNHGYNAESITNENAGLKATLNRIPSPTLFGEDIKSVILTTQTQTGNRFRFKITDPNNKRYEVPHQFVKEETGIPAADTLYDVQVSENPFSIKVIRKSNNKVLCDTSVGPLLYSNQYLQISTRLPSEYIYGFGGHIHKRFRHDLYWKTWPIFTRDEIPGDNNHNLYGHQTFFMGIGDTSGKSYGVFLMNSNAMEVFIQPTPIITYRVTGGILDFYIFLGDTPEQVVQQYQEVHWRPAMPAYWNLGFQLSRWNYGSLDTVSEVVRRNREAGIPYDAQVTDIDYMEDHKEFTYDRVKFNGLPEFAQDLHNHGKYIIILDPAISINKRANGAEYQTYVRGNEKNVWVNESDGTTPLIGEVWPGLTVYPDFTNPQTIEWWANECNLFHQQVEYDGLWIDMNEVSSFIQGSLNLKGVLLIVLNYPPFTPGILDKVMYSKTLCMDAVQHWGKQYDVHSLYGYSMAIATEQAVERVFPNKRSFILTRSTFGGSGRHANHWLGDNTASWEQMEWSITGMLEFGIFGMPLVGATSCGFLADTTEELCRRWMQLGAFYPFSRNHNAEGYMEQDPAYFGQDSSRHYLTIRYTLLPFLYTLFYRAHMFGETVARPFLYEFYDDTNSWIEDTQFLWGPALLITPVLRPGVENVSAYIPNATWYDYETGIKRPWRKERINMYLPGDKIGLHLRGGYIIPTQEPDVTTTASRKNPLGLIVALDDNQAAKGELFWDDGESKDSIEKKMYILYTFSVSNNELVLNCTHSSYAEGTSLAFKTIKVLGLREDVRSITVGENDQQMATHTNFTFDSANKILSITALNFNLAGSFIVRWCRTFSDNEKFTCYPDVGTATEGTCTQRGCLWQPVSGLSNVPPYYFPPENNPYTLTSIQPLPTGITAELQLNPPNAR
T1 sequence (P23739 1014-1841 limits assumed): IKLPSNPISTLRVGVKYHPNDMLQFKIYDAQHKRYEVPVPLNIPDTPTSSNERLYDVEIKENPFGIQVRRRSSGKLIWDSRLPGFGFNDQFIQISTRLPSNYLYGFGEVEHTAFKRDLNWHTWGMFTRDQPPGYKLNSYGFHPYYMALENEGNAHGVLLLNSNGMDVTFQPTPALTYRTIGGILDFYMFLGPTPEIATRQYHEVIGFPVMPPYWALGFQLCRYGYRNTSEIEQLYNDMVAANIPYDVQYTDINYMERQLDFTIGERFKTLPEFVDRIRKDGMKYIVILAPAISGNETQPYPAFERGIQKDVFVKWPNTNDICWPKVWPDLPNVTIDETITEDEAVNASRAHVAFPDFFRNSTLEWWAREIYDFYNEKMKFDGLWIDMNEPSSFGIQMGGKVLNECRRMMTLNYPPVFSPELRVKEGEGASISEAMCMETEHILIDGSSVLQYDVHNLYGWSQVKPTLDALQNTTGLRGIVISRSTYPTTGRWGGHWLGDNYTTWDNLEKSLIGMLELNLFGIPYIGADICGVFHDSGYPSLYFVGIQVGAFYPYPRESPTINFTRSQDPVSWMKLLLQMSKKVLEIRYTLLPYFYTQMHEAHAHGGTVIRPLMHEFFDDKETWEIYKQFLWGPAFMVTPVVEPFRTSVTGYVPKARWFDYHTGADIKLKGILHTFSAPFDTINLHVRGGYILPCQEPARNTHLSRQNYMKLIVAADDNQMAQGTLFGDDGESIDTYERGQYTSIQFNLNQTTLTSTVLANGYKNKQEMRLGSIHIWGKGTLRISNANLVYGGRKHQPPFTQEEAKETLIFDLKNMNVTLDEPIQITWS
Alpha-galactosidase (Coffea arabica), sequence (Q42656 16-378 limits assumed): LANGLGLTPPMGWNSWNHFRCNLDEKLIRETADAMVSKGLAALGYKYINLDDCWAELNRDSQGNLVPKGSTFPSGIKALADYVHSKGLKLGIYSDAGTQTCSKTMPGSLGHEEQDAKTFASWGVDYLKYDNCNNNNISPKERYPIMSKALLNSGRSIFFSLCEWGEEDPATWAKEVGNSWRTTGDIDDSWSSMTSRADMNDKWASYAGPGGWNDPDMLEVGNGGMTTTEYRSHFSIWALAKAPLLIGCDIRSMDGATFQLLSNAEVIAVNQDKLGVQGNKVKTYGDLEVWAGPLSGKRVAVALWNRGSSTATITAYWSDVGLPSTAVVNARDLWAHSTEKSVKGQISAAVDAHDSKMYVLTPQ
Beta-glucuronidase, sequence (P05804 whole entry): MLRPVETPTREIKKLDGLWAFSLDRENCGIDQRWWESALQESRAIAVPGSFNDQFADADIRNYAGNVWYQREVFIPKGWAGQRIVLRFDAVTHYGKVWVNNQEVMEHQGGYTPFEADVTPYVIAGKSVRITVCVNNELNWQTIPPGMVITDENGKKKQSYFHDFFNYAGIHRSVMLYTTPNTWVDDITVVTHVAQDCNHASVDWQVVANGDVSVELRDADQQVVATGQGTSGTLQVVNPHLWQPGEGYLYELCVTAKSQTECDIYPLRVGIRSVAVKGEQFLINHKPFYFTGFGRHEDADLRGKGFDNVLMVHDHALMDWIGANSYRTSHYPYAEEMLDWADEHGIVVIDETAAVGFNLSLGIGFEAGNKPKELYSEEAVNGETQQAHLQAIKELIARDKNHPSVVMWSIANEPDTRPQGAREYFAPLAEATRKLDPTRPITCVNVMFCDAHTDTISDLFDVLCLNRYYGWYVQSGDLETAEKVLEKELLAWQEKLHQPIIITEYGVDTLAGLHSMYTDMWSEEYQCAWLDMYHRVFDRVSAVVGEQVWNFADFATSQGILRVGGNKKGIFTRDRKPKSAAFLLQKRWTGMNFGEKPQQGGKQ
Beta-glucuronidase (Escherichia coli (strain K12)), sequence (P05804 whole entry, looked up): as the sequence (P05804 whole entry) above
Alpha-galactosidase, sequence (Q42656 whole entry): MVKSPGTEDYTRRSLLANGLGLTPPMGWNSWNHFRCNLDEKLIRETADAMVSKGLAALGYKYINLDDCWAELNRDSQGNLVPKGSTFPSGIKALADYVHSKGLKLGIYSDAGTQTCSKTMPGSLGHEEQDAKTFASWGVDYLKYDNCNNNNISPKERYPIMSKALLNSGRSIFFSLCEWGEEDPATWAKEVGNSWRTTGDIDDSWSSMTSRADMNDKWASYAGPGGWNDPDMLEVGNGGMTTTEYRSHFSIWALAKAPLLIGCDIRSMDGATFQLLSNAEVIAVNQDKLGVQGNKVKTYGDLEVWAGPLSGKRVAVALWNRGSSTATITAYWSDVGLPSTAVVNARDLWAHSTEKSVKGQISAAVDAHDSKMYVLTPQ

## C[C@@]1(CO)NC[C@H](O)[C@@H](O)[C@@H]1O.Cl
[1]
  IC50: 38 µM
[2]
  IC50: 22 µM
[3]; read-out: IC50
  IC50: 25 µM
[4]
  IC50: Not Active
[5]
  IC50: Not Active
[6]
  inhibition: 9.5%
[7]
  IC50: Not Active
[8]
  inhibition: 3.6%
[9]
  IC50: Not Active
[10]
  inhibition: 9.3%
[11]
  IC50: Not Active
[12]
  inhibition: 14.1%
[13]
  IC50: Not Active
[14]
  inhibition: 9.6%
[15]
  IC50: Not Active
[16]
  inhibition: 2%
[17]
  IC50: Not Active
[18]
  inhibition: 13.8%
[19]
  IC50: Not Active
[20]
  inhibition: 7.5%
[21]
  IC50: Not Active
[22]
  inhibition: 2.7%
[23]
  IC50: Not Active
[24]
  inhibition: 0%
[25]
  IC50: Not Active
[26]
  inhibition: 17.7%

## CCC[C@]1(CO)NC[C@H](O)[C@@H](O)[C@@H]1O.Cl
[1]
  IC50: 0.088 µM
[2]
  IC50: 0.096 µM
[3]; read-out: IC50
  IC50: 0.2 µM
[4]; read-out: IC50
  IC50: 1.7 µM
[5]
  IC50: Not Active
[6]
  inhibition: 5.7%
[7]
  IC50: Not Active
[8]
  inhibition: 10.3%
[9]
  IC50: Not Active
[10]
  inhibition: 11%
[11]
  IC50: Not Active
[12]
  inhibition: 15.7%
[13]
  IC50: Not Active
[14]
  inhibition: 7.9%
[15]
  IC50: Not Active
[16]
  inhibition: 1.5%
[17]
  IC50: Not Active
[18]
  inhibition: 9.9%
[19]
  IC50: Not Active
[20]
  inhibition: 4.3%
[21]
  IC50: Not Active
[22]
  inhibition: 1.9%
[23]
  IC50: Not Active
[24]
  inhibition: 3.6%
[25]
  IC50: Not Active
[26]
  inhibition: 8.6%

## CCCCCCCCCC[C@@]1(CO)NC[C@H](O)[C@@H](O)[C@@H]1O.Cl
[1]
  IC50: 159 µM
[2]
  IC50: 263 µM
[3]
  IC50: Not Active
[4]
  IC50: Not Active
[5]
  IC50: Not Active
[6]
  inhibition: 8.8%
[7]; read-out: IC50
  IC50: 83 µM
[9]
  IC50: Not Active
[10]
  inhibition: 2.1%
[11]; read-out: IC50
  IC50: 43 µM
[13]
  IC50: Not Active
[14]
  inhibition: 4.7%
[15]
  IC50: Not Active
[16]
  inhibition: 0%
[17]
  IC50: Not Active
[18]
  inhibition: 0%
[19]
  IC50: Not Active
[20]
  inhibition: 3%
[21]
  IC50: Not Active
[22]
  inhibition: 10.5%
[23]
  IC50: Not Active
[24]
  inhibition: 0%
[25]
  IC50: Not Active
[26]
  inhibition: 3.2%
[27]
  inhibition: 0%

## CC[C@@]1(CO)NC[C@H](O)[C@@H](O)[C@@H]1O.Cl
[1]
  IC50: 14 µM
[2]
  IC50: 6.6 µM
[3]; read-out: IC50
  IC50: 8.8 µM
[4]; read-out: IC50
  IC50: 50 µM
[5]
  IC50: Not Active
[6]
  inhibition: 6.2%
[7]
  IC50: Not Active
[8]
  inhibition: 9.2%
[9]
  IC50: Not Active
[10]
  inhibition: 3.5%
[11]
  IC50: Not Active
[12]
  inhibition: 18.4%
[13]
  IC50: Not Active
[14]
  inhibition: 2.4%
[15]
  IC50: Not Active
[16]
  inhibition: 1.1%
[17]
  IC50: Not Active
[18]
  inhibition: 2.1%
[19]
  IC50: Not Active
[20]
  inhibition: 1.5%
[21]
  IC50: Not Active
[22]
  inhibition: 0%
[23]
  IC50: Not Active
[24]
  inhibition: 0%
[25]
  IC50: Not Active
[26]
  inhibition: 0.4%
